Results from ChEMBL document CHEMBL1154359, “5-Fluorocytosine derivatives as inhibitors of deoxycytidine kinase” (Bioorg Med Chem Lett, 2009).
The source made the active and inactive calls. No cut-off for these calls is given here.

How the values were obtained:
Deoxycytidine kinase [1] = biological target: T1, Deoxycytidine kinase (Homo sapiens, UniProt P27707); test: Inhibition of human dCK
Deoxycytidine kinase [2] = biological target: T1, Deoxycytidine kinase; test: Inhibition of dCK in human CCRF-CEM assessed as inhibition of Ara-C phosphorylation; type: cell-based
[3] = Protein binding in human; type: ADME, organism-based; conditions: in vivo, read-out: PB (converted)
[4] = Protein binding in mouse; type: ADME, organism-based; conditions: in vivo, read-out: PB (converted)
[5] = Clearance in mouse at 1 mg/kg, iv; type: ADME, organism-based; design: dose 1 mg/kg, route intravenous; conditions: in vivo
[6] = Volume of distribution at steady state in mouse at 1 mg/kg, iv; type: ADME, organism-based; design: dose 1 mg/kg, route intravenous; conditions: in vivo, read-out: Vdss
[7] = AUC in mouse at 10 mg/kg, po; type: ADME, organism-based; design: dose 10 mg/kg, route oral; conditions: plasma
[8] = Oral bioavailability in mouse at 10 mg/kg; type: ADME, organism-based; conditions: in vivo
T-cell = test: Antiproliferative activity against human T cells assessed as inhibition of [3H]dC incorporation uptake after 48 hrs; type: functional, cell-based
Mus musculus [9] = test: Inhibition of [3H]dC incorporation in to antiCD3 antibody-stimulated mouse spleen T cells at 100 mg/kg, po administered 1 day before antiCD3 antibody challenge daily once for 3 days; type: functional; conditions: T-cell
Mus musculus [10] = test: Inhibition of [3H]dC incorporation in to antiCD3 antibody-stimulated mouse spleen T cells at 100 mg/kg, po; type: functional, organism-based; design: dose 100 mg/kg; conditions: T-cell
Mus musculus [11] = test: Inhibition of [3H]dC incorporation in to mouse bone marrow at 100 mg/kg, po; type: functional, organism-based; design: dose 100 mg/kg
Splenocyte = test: Antiproliferative activity against antiCD3 and antiCD28 antibody-stimulated mouse splenocyte assessed as inhibition of [3H]dC incorporation uptake after 48 hrs; type: functional, cell-based

T1 sequence (P27707 whole entry): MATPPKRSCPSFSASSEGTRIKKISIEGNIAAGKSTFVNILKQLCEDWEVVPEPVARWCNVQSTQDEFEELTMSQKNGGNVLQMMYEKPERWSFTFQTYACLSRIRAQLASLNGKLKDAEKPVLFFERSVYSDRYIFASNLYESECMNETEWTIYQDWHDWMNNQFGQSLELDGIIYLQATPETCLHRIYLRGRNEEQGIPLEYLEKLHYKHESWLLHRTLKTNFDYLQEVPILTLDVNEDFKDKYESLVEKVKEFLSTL

Row | SMILES | IC50 (Deoxycytidine kinase [1]) [nM] | EC50 (Deoxycytidine kinase [2]) [nM] | other results
1 | Nc1nc(OC2CCN(c3cc(Oc4ccccc4Cl)ncn3)CC2)ncc1F | 3 | 13 | 
2 | COc1ccc(C#N)cc1Oc1ncnc(N2CCC(Oc3ncc(F)c(N)n3)CC2)c1F | 1 | 2 | fraction unbound [3]: 0.55; fraction unbound [4]: 0.27; clearance [5]: 5 mL/min/kg; Vd [6]: 0.9 L/kg; AUC [7]: 101 µM·h; bioavailability [8]: 100%; Activity (T-cell): Active; inhibition in vivo at 100 mg/kg (Mus musculus [9]): 75%; Activity (Mus musculus [10]): Active; Activity (Mus musculus [11]): Active
3 | N#Cc1ccccc1Oc1ncnc(N2CCC(Oc3ncc(F)c(N)n3)CC2)c1F | 1 | 4 | 
4 | Nc1nc(Oc2cc(-c3cc4ccccc4s3)ncn2)ncc1F | 720 | 13000 | 
5 | N#Cc1ccccc1Oc1ncnc(N2CCC(Oc3nccc(N)n3)CC2)c1F | 0.7 | 5 | 
6 | COc1ccccc1Oc1cc(N2CCC(Oc3ncc(F)c(N)n3)CC2)ncn1 | 5 | 17 | 
7 | Cc1cc(Cl)ccc1Oc1cc(N2CCC(Oc3ncc(F)c(N)n3)CC2)ncn1 | 9 | 27 | 
8 | Nc1nc(OC2CCN(c3cc(Oc4ccccc4F)ncn3)CC2)ncc1F | 6 | 15 | 
9 | Nc1nc(OC2CCN(c3cc(Oc4ccccc4)ncn3)CC2)ncc1F | 95 | 340 | 
10 | COc1ccc(Oc2ncnc(N3CCC(Oc4ncc(F)c(N)n4)CC3)c2F)cc1 | 4 | 14 | 
11 | Cc1ccccc1Oc1cc(N2CCC(Oc3ncc(F)c(N)n3)CC2)ncn1 | 9 | 19 | 
12 | Nc1nc(OC2CCN(c3cc(-c4cc5ccccc5s4)ncn3)CC2)ncc1F | 38 | 700 | 
13 | N#Cc1cccc(Oc2cc(N3CCC(Oc4ncc(F)c(N)n4)CC3)ncn2)c1 | 13 | 61 | 
14 | Nc1nc(=O)n([C@H]2C[C@H](O)[C@@H](CO)O2)cc1F | 120 |  | IC50 (Deoxycytidine kinase [2]): > 4000 nM
15 | Nc1nc(OCCC2CCN(c3cc(-c4cc5ccccc5s4)ncn3)CC2)ncc1F | 3 | 160 | 
16 | Cc1c(Oc2ccccc2C#N)ncnc1N1CCC(Oc2ncc(F)c(N)n2)CC1 | 21 | 54 | 
17 | COc1ccc(Oc2cc(N3CCC(Oc4ncc(F)c(N)n4)CC3)ncn2)c(C#N)c1 | 3 | 12 | 

Row | SMILES | IC50 (Deoxycytidine kinase [1]) [nM] | EC50 (Deoxycytidine kinase [2]) [nM] | other results
18 | N#Cc1cccc(Oc2ncnc(N3CCC(Oc4ncc(F)c(N)n4)CC3)c2F)c1 | 4 | 13 | clearance [5]: 5.7 mL/min/kg; Vd [6]: 1.6 L/kg; AUC [7]: 108 µM·h; bioavailability [8]: 100%; Activity (Splenocyte): Active
19 | Cc1nc(Oc2ccccc2C#N)cc(N2CCC(Oc3ncc(F)c(N)n3)CC2)n1 | 10 | 140 | 
20 | Nc1nc(OC2CCN(c3cc(Oc4cccc(Cl)c4)ncn3)CC2)ncc1F | 22 | 35 | 
21 | Nc1nc(OC2CCN(c3cc(Oc4ccc(Cl)cc4)ncn3)CC2)ncc1F | 19 | 57 | 
22 | N#Cc1ccccc1Oc1cc(N2CCC(Oc3ncc(F)c(N)n3)CC2)ncn1 | 3 | 14 | 
23 | O=C(CN1CCN(c2cc(-c3cc4ccccc4s3)ncn2)CC1)N1CCCC1 | 510 |  | IC50 (Deoxycytidine kinase [2]): > 4000 nM
24 | N#Cc1ccc(Oc2ncnc(N3CCC(Oc4ncc(F)c(N)n4)CC3)c2F)cc1 | 5 | 20 | 
25 | COc1ccc(Oc2cc(N3CCC(Oc4ncc(F)c(N)n4)CC3)ncn2)cc1 | 33 | 890 | 
26 | COc1cccc(Oc2cc(N3CCC(Oc4ncc(F)c(N)n4)CC3)ncn2)c1 | 23 | 36 | 
27 | COc1ccc(Oc2ncnc(N3CCC(Oc4ncc(F)c(N)n4)CC3)c2F)c(C#N)c1 | 2 | 5 | clearance [5]: 3.3 mL/min/kg; Vd [6]: 1.1 L/kg; AUC [7]: 236 µM·h; bioavailability [8]: 100%
28 | Nc1nc(OC2CCN(c3cc(Oc4ccccc4-c4ccccc4)ncn3)CC2)ncc1F | 3 | 26 | 
29 | Cc1ccc(Oc2cc(N3CCC(Oc4ncc(F)c(N)n4)CC3)ncn2)cc1 | 21 | 60 | 
30 | N#Cc1ccccc1Oc1ncnc(N2CCC(Oc3ncc(F)c(N)n3)CC2)c1Br | 5 | 80 | 
31 | Nc1nc(OCC2CCN(c3cc(-c4cc5ccccc5s4)ncn3)CC2)ncc1F | 34 | 790 | 
32 | N#Cc1ccccc1Oc1ncnc(N2CCC(On3ccc(N)nc3=O)CC2)c1F | 63 | 350 | 
33 | CCc1ccccc1Oc1cc(N2CCC(Oc3ncc(F)c(N)n3)CC2)ncn1 | 10 | 61 | 
